Experiments:
TNFα = experiment: cells; format: cell-based, human; conditions: Homo sapiens, Monocyte, LPS-stimulated human monocytes, TNFα content; read-out: EC50 TNF
IRAK4 enzyme = IRAK4 enzyme (Homo sapiens (Human), UniProt Q9NWZ3); experiment: biochemical; format: biochemical; conditions: IRAK4 enzyme, TR-FRET (HTRF), 500 μM ATP
Sequence of IRAK4 enzyme (Q9NWZ3 whole entry): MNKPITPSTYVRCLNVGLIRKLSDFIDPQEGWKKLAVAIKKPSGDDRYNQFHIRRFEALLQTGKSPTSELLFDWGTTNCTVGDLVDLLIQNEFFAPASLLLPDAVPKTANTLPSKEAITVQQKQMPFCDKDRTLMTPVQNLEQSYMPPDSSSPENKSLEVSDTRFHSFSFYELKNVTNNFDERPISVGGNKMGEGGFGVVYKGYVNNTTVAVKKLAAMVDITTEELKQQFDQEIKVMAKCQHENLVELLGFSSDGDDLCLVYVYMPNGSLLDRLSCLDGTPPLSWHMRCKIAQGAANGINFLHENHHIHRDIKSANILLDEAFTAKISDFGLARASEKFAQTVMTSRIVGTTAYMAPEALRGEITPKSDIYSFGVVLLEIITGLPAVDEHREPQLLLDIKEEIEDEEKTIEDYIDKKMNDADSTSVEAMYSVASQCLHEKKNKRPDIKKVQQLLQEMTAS

SMILES	EC50 (TNFα) [nM]	IC50 (IRAK4 enzyme) [nM]
CC1(O)CC2(CC(Nc3cc(-c4ccc5cc(C#N)cnn45)ncc3C(=O)NC[C@@H](F)C(C)(C)O)C2)C1 (stereo partly drawn) [Example 510, (R)-6-(3-cyanopyrrolo[1,2-b]pyridazin-7-yl)-N-(2-fluoro-3-hydroxy-3-methylbutyl)-4-((6-hydroxy-6-methylspiro[3.3]heptan-2-yl)amino)nicotinamide]	39	< 1
CC(C)(O)[C@H](F)CNC(=O)c1cnc(-c2ccc3cc(C#N)cnn23)cc1NC1CC2(CC(O)C2)C1 (stereo partly drawn) [Example 511, (R)-6-(3-cyano-pyrrolo[1,2-b]pyridazin-7-yl)-N-(2-fluoro-3-hydroxy-3-methylbutyl)-4-((6-hydroxyspiro[3.3]heptan-2-yl)amino) nicotinamide]	26	< 1
CNC(=O)c1cnc(-c2ccc3cc(C#N)cnn23)cc1N[C@H]1CCC[C@@H](O)C1 [Example 512, 6-(3-cyanopyrrolo[1,2-b]pyridazin-7-yl)-4-(((1S,3R)-3-hydroxy-cyclohexyl)amino)-N-methylnicotinamide]	98	3
N#Cc1cnn2c(-c3cc(N[C@H]4CCC[C@@H](O)C4)c(C(=O)NC4(C#N)CC4)cn3)ccc2c1 [Example 513, N-(1-cyanocyclopropyl)-6-(3-cyanopyrrolo[1,2-b]pyridazin-7-yl)-4-(((1S,3R)-3-hydroxy-cyclohexyl)amino) nicotinamide]	110	2
N#Cc1cnn2c(-c3cc(N[C@H]4CCC[C@@H](O)C4)c(C(=O)NC4CC4)cn3)ccc2c1 [Example 514, 6-(3-cyanopyrrolo[1,2-b]pyridazin-7-yl)-N-cyclopropyl-4-(((1S,3R)-3-hydroxy-cyclohexyl)amino) nicotinamide]	213	9
COC(C)(C)[C@H](F)CNC(=O)c1cnc(-c2ccc3cc(C#N)cnn23)cc1N[C@H]1CCC[C@@H](O)C1 [Example 518, 6-(3-cyanopyrrolo[1,2-b]pyridazin-7-yl)-N-((R)-2-fluoro-3-methoxy-3-methylbutyl)-4-(((1S,3R)-3-hydroxycyclohexyl)amino) nicotinamide]	13	< 1
N#Cc1cnn2c(-c3cc(Nc4cnn(CC(F)F)c4)c(C(=O)N[C@H]4CC[C@H](NC(=O)C5CC5)CC4)cn3)ccc2c1 [Example 519, 6-(3-cyanopyrrolo[1,2-b]pyridazin-7-yl)-N-((1r,4r)-4-(cyclopropane-carboxamido)cyclohexyl)-4-((1-(2,2-difluoroethyl)-1H-pyrazol-4-yl)amino) nicotinamide]	34	< 1
CC(C)(O)[C@H](F)CNC(=O)c1cnc(-c2ccc3cc(C#N)cnn23)cc1N[C@H]1CC[C@@H](O)C1 [Example 520, 6-(3-cyanopyrrolo[1,2-b]pyridazin-7-yl)-N-((R)-2-fluoro-3-hydroxy-3-methylbutyl)-4-(((1S,3R)-3-hydroxycyclopentyl)amino)nicotinamide]	45	< 1
CC(C)Nc1cc(-c2ccc3cc(C#N)cnn23)ncc1C(=O)NC1CCC(S(C)(=O)=O)CC1 (stereo not shown) [Example 521, 6-(3-cyanopyrrolo[1,2-b]pyridazin-7-yl)-4-(iso-propylamino)-N-(4-(methylsulfonyl)cyclohexyl) nicotinamide]	717	62
CC(C)(O)[C@H](F)CNC(=O)c1cnc(-c2ccc3cc(C#N)cnn23)cc1N[C@H]1CC[C@H](O)C1 [Example 522, 6-(3-cyanopyrrolo[1,2-b]pyridazin-7-yl)-N-((R)-2-fluoro-3-hydroxy-3-methylbutyl)-4-(((1S,3S)-3-hydroxycyclopentyl)amino) nicotinamide]	23	< 1
CC(C)(O)[C@H](F)CNC(=O)c1cnc(-c2ccc3cc(C#N)cnn23)cc1NC1CCC(S(C)(=O)=O)CC1 (stereo partly drawn) [Example 523, (R)-6-(3-cyanopyrrolo[1,2-b]pyridazin-7-yl)-N-(2-fluoro-3-hydroxy-3-methylbutyl)-4-((4-(methylsulfonyl)cyclohexyl)amino)nicotinamide]	412	14

From patent publication US10336762B2 (priority 2017, dated 2019)
